US20230099344A1, “COMPOUNDS AND METHODS FOR THE TARGETED DEGRADATION OF IRAK-4” (Arvinas Operations, Inc., priority 2021, published 2023)

Assays:
Assay type in all cases: cell-based
IL6 [1] = assay: LPS stimulated IL6 inhibition assay in PBMC; conditions: human PBMCs, LPS stimulation, compound overnight, IL6 by MSD after 24 hrs; for Dmax: read-out: LPS Stim IL6 inhibition Dmax; for IC50: read-out: LPS stim IL6 inhibition IC50
Method in brief: (§1)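 Human PBMC at 2.0×10^6 cells/mL were pre-treated with compound overnight, then stimulated with IL-1β, LPS or R848, each at the donor-specific EC50 concentration. After 24 hrs, supernatant IL6 and/or IL8 was measured by MSD.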

IL6 [2] = assay: R848 stimulated IL6 inhibition assay in PBMC; conditions: human PBMCs, R848 stimulation, compound overnight, IL6 by MSD after 24 hrs; for Dmax: Homo sapiens, 24 h, read-out: R848 stim IL6 inhibition Dmax; for IC50: read-out: R848 stim IL6 inhibition IC50
Method in brief: as §1

IRAK-4 = biological target: T1, IRAK-4 (Homo sapiens, UniProt Q9NWZ3); assay: IRAK-4 ELISA, PBMC degradation; design: endogenous in cells; host or cells: PBMC; conditions: treated overnight
T1 sequence (Q9NWZ3 1-460): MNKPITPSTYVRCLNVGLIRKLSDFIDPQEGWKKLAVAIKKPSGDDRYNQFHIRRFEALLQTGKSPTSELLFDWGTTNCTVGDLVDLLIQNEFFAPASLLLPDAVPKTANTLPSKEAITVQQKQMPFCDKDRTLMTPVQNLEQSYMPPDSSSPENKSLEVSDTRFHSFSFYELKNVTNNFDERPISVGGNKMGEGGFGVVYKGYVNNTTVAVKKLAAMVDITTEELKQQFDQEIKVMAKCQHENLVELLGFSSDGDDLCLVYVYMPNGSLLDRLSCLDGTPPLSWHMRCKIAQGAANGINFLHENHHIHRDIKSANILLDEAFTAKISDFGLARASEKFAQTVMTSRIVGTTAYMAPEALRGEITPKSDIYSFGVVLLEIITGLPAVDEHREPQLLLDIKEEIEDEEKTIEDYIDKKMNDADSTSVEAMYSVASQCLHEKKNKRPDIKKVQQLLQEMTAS
Method in brief: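 IRAK-4 levels measured by matched-antibody-pair ELISA on lysates after overnight compound exposure. Cells seeded same day: PBMC at 2×10^6/ml, OCI-Ly10 at 1×10^6/ml.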

| Structure (SMILES) | IC50 (IL6 [1]; Homo sapiens, PBMC, 24 h) [µM] | IC50 (IL6 [2]; PBMC) [µM] | DC50 (IRAK-4) [µM] | Dmax (IRAK-4) [%] | PBMC DC90 (IRAK-4) | IC50 (IL6 [1]) [µM] | IC50 (IL6 [2]) [µM] | PBMC Dmax (IRAK-4) | Dmax (IL6 [1]; Homo sapiens, PBMC, 24 h) [%] | Dmax (IL6 [2]; PBMC) [%] | LPS Stim IL6 inhibition Dmax (IL6 [1]) | R848 stim IL6 inhibition Dmax (IL6 [2]) |
| --- | --- | --- | --- | --- | --- | --- | --- | --- | --- | --- | --- | --- |
| O=C1CCC(N2Cc3cc(N4CC(O[C@H]5CC[C@H](n6cc7cc(NC(=O)c8cnn9cccnc89)c(OCC8CC8)cc7n6)CC5)C4)ccc3C2=O)C(=O)N1 (stereo partly shown) [Example 423, N-[6-(cyclopropylmethoxy)-2-[(1r,4r)-4-({1-[2-(2,6-dioxopiperidin-3-yl)-1-oxo-2,3-dihydro-1H-isoindol-5-yl]azetidin-3-yl}oxy)cyclohexyl]-2H-indazol-5-yl]pyrazolo[1,5-a]pyrimidine-3-carboxamide] | 0.01 to 0.05 | 0.01 to 0.05 | 0.001 to 0.005 | ≥ 90 | B (B represents a DC90 value ≥10.0 nM and <25.0 nM) |  |  |  | 80 to 90 | ≥ 90 |  |  |
| CC(C)Oc1cc2nn([C@H]3CC[C@H](OC4CN(c5ccc6c(c5)CN(C5CCC(=O)NC5=O)C6=O)C4)CC3)cc2cc1NC(=O)c1cnn2cccnc12 (stereo partly shown) [Example 424] | < 0.01 | < 0.01 | 0.001 to 0.005 | 80 to 90 | B (B represents a DC90 value ≥10.0 nM and <25.0 nM) |  |  |  | < 70 | 80 to 90 |  |  |
| O=C1CCC(N2C(=O)c3ccc(N4CC[C@@H](O[C@H]5CC[C@@H](n6cc7cc(NC(=O)c8cnn9cccnc89)c(OCC8CC8)cc7n6)CC5)C4)cc3C2=O)C(=O)N1 (stereo partly shown) [Example 425] | 0.05 to 0.1 | 0.05 to 0.1 | ≥ 0.01 |  | D (D represents a DC90 value ≥50 nM) |  |  |  | 70 to 80 | 70 to 80 |  |  |
| O=C1CCC(N2C(=O)c3ccc(N4CC[C@@H](O[C@H]5CC[C@H](n6cc7cc(NC(=O)c8cnn9cccnc89)c(OCC8CC8)cc7n6)CC5)C4)cc3C2=O)C(=O)N1 (stereo partly shown) [Example 426] | 0.05 to 0.1 | 0.05 to 0.1 | ≥ 0.01 | ≥ 90 | D (D represents a DC90 value ≥50 nM) |  |  |  | < 70 | 80 to 90 |  |  |
| O=C1CCC(N2C(=O)c3ccc(N4CC[C@H](O[C@H]5CC[C@@H](n6cc7cc(NC(=O)c8cnn9cccnc89)c(OCC8CC8)cc7n6)CC5)C4)cc3C2=O)C(=O)N1 (stereo partly shown) [Example 427] | < 0.01 | 0.01 to 0.05 | ≥ 0.01 |  | D (D represents a DC90 value ≥50 nM) |  |  |  | 70 to 80 | < 70 |  |  |
| O=C1CCC(N2C(=O)c3ccc(N4CC[C@H](O[C@H]5CC[C@@H](n6cc7cc(NC(=O)c8cnn9cccnc89)c(OCC8CC8)cc7n6)CC5)C4)cc3C2=O)C(=O)N1 (stereo partly shown) [Example 428] |  |  | 0.001 to 0.005 | ≥ 90 | B (B represents a DC90 value ≥10.0 nM and <25.0 nM) | 0.01 to 0.05 | 0.01 to 0.05 |  |  |  | D (D represents a Ymax value <70) | A (A represents a Ymax value ≥90) |
| O=C1CCC(N2C(=O)c3ccc(N4CCN(C[C@H]5CC[C@H](n6cc7cc(NC(=O)c8cnn9cccnc89)c(OCC(F)F)cc7n6)CC5)CC4)cc3C2=O)C(=O)N1 (stereo partly shown) [Example 430] | 0.01 to 0.05 | 0.01 to 0.05 | 0.001 to 0.005 | ≥ 90 | A (A represents a DC90 value <10.0 nM) |  |  |  | 70 to 80 | ≥ 90 |  |  |
| CC(C)Oc1cc2c(cc1NC(=O)c1cnn3cccnc13)CN([C@H]1CC[C@H](CN3CCN(c4ccc5c(c4)C(=O)N(C4CCC(=O)NC4=O)C5=O)CC3)CC1)C2=O (stereo partly shown) [Example 431] | 0.01 to 0.05 | 0.01 to 0.05 | 0.001 to 0.005 | ≥ 90 | A (A represents a DC90 value <10.0 nM) |  |  |  | 70 to 80 | ≥ 90 |  |  |
| CC(C)Oc1cc2c(cc1NC(=O)c1cnn3cccnc13)CN([C@H]1CC[C@H](CN3CCC(c4ccc5c(c4)C(=O)N(C4CCC(=O)NC4=O)C5=O)CC3)CC1)C2=O (stereo partly shown) [Example 432] | 0.01 to 0.05 | 0.01 to 0.05 | 0.001 to 0.005 | ≥ 90 | A (A represents a DC90 value <10.0 nM) |  |  |  | 70 to 80 | ≥ 90 |  |  |

The next lines start with results.

| IC50 (IL6 [1]; Homo sapiens, PBMC, 24 h) [µM] | IC50 (IL6 [2]; PBMC) [µM] | DC50 (IRAK-4) [µM] | Dmax (IRAK-4) [%] | PBMC DC90 (IRAK-4) | IC50 (IL6 [1]) [µM] | IC50 (IL6 [2]) [µM] | PBMC Dmax (IRAK-4) | Structure (SMILES) | Dmax (IL6 [1]; Homo sapiens, PBMC, 24 h) [%] | Dmax (IL6 [2]; PBMC) [%] | LPS Stim IL6 inhibition Dmax (IL6 [1]) | R848 stim IL6 inhibition Dmax (IL6 [2]) |
| --- | --- | --- | --- | --- | --- | --- | --- | --- | --- | --- | --- | --- |
| < 0.01 | 0.01 to 0.05 | < 0.001 | ≥ 90 | A (A represents a DC90 value <10.0 nM) |  |  |  | CC(C)Oc1cc2c(cc1NC(=O)c1cnn3cccnc13)CN(C1CCN(CC3CN(c4cccc5c4n(C)c(=O)n5C4CCC(=O)NC4=O)C3)CC1)C2=O (stereo not shown) [Example 381] | 70 to 80 | ≥ 90 |  |  |
| 0.01 to 0.05 | 0.01 to 0.05 | < 0.001 | ≥ 90 | A (A represents a DC90 value <10.0 nM) |  |  |  | CC(C)Oc1cc2c(cc1NC(=O)c1cnn3cccnc13)CN(C[C@@H](F)C1CCN(CC3CN(c4cccc5c4n(C)c(=O)n5C4CCC(=O)NC4=O)C3)CC1)C2=O (stereo partly shown) [Example 382] | 70 to 80 | ≥ 90 |  |  |
|  |  | < 0.001 |  | A (A represents a DC90 value <10.0 nM) | ≥ 0.1 | < 0.01 | A (A represents a Dmax value ≥90) | CC(C)Oc1cc2c(cc1NC(=O)c1cnn3cccnc13)CN([C@H]1CC[C@H](N(C)C3CN(c4cccc5c4n(C)c(=O)n5C4CCC(=O)NC4=O)C3)CC1)C2=O (stereo partly shown) [Example 384, N-(2-((1r,4r)-4-((1-(1-(2,6-dioxopiperidin-3-yl)-3-methyl-2-oxo-2,3-dihydro-1H-benzo[d]imidazol-4-yl)azetidin-3-yl)(methyl)amino)cyclohexyl)-6-isopropoxy-1-oxoisoindolin-5-yl)pyrazolo[1,5-a]pyrimidine-3-carboxamide] |  |  | C (C represents a Ymax value ≥70 and <80) | A (A represents a Ymax value ≥90) |
| ≥ 0.1 | 0.01 to 0.05 | < 0.001 | 80 to 90 | A (A represents a DC90 value <10.0 nM) |  |  |  | C=Nc1c(C(=O)Nc2cc3cn(C4CCN(CC5(F)CN(c6cccc7c6n(C)c(=O)n7C6CCC(=O)NC6=O)C5)CC4)nc3cc2C2CC2)cnn1/C=C\C (stereo not shown) [Example 389] | ≥ 90 | ≥ 90 |  |  |
| 0.01 to 0.05 | 0.01 to 0.05 | < 0.001 | ≥ 90 | A (A represents a DC90 value <10.0 nM) |  |  |  | CC(C)Oc1nc2c(cc1NC(=O)c1cnn3cccnc13)CN(C1CCN(CC3CN(c4ccc(C(=O)NC5CCC(=O)NC5=O)c(F)c4)C3)CC1)C2=O (stereo not shown) [Example 402] | < 70 | 80 to 90 |  |  |
| 0.01 to 0.05 | < 0.01 | < 0.001 | 80 to 90 | A (A represents a DC90 value <10.0 nM) |  |  |  | O=C1CCC(N2C(=O)c3ccc(N4CCCC5(C4)CN([C@H]4CC[C@H](n6cc7cc(NC(=O)c8cnn9cccnc89)c(OCC8CC8)cc7n6)CC4)C5)cc3C2=O)C(=O)N1 (stereo partly shown) [Example 418] | 80 to 90 | ≥ 90 |  |  |
| < 0.01 | 0.01 to 0.05 | 0.001 to 0.005 | 70 to 80 | A (A represents a DC90 value <10.0 nM) |  |  |  | O=C1CCC(N2C(=O)c3cccc(N4CC5(CCCN(C6CCC(n7cc8cc(NC(=O)c9cnn%10cccnc9%10)c(OCC9CC9)cc8n7)CC6)C5)C4)c3C2=O)C(=O)N1 (stereo not shown) [Example 419] | 70 to 80 | 80 to 90 |  |  |
| < 0.01 | 0.01 to 0.05 | < 0.001 | ≥ 90 | A (A represents a DC90 value <10.0 nM) |  |  |  | O=C1CCC(N2C(=O)c3ccc(C4CCN(C[C@H]5CC[C@H](n6cc7cc(NC(=O)c8cnn9cccnc89)c(OCC8CC8)cc7n6)CC5)CC4)cc3C2=O)C(=O)N1 (stereo partly shown) [Example 429, N-[6-(cyclopropylmethoxy)-2-[(1r,4r)-4-({4-[2-(2,6-dioxopiperidin-3-yl)-1,3-dioxo-2,3-dihydro-1H-isoindol-5-yl]piperidin-1-yl}methyl)cyclohexyl]-2H-indazol-5-yl]pyrazolo[1,5-a]pyrimidine-3-carboxamide] | 70 to 80 | ≥ 90 |  |  |
| < 0.01 | < 0.01 | < 0.001 | ≥ 90 | A (A represents a DC90 value <10.0 nM) |  |  |  | O=C1CCC(N2Cc3ccc(N4CCN(C[C@H]5CC[C@H](n6cc7cc(NC(=O)c8cnn9cccnc89)c(OCC(F)F)cc7n6)CC5)CC4)cc3C2=O)C(=O)N1 (stereo partly shown) [Example 433] | 80 to 90 | ≥ 90 |  |  |
